The test system of series [1] is SUD4. The series is described as follows: Cytotoxicity against human SUDHL4 cells assessed as reduction in cell viability after 24 hrs by CellTiter-Glo assay. The class given is functional, cell-based. The following applies: SU-DHL-4, 24 h. (ATP-based viability assays read luminescence as a measure of living cells.)
Series [2] has as its system NB-4. The series is described as follows: Induction of cell differentiation in human NB4 cells at 3 uM after 6 days by light microscopy based NBT reduction assay. The class given is functional.
Series [3] deals with Ramos. The series is described as follows: Cytotoxicity against human Ramos cells assessed as reduction in cell viability after 24 hrs by CellTiter-Glo assay. The format is functional, cell-based.
The test system of series [4] is HL-60. The experiment in a line: Cytotoxicity against human HL60 cells assessed as reduction in cell viability after 24 hrs by CellTiter-Glo assay. The following applies: HL-60, 24 h. The format is functional, cell-based.
Series [5] in a line: Cytotoxicity against human NB4-LR2 cells assessed as reduction in cell viability after 24 hrs by CellTiter-Glo assay. The class given is functional, cell-based.
In series [6] the test system is NB-4. The series is described as follows: Cytotoxicity against human NB4 cells assessed as reduction in cell viability after 24 hrs by CellTiter-Glo assay. The class given is functional, cell-based. The conditions noted are these: NB-4, 24 h.
Series [7] deals with OCI-Ly10. The series is described as follows: Cytotoxicity against human OCI-LY10 cells assessed as reduction in cell viability after 24 hrs by CellTiter-Glo assay. The following applies: OCI-Ly10, 24 h. The format is functional, cell-based.
In series [8] the test system is SU-DHL-2. The experiment in a line: Cytotoxicity against human SU-DHL-2 cells assessed as reduction in cell viability after 24 hrs by CellTiter-Glo assay. The class given is functional, cell-based. The following applies: SU-DHL-2, 24 h.
The nature of series [9]: Cytotoxicity against human OCI-Ly8 cells assessed as reduction in cell viability after 24 hrs by CellTiter-Glo assay. The format is functional, cell-based. The conditions noted are these: OCI-Ly8, 24 h.
Series [10] has as its system PBMC. The series is described as follows: Cytotoxicity against PBMC (unknown origin) assessed as reduction in cell viability at 1 to 20 uM after 24 hrs by trypan blue exclusion assay. The class given is cell-based.
Series [11] can be described thus: Cytotoxicity against PBMC (unknown origin) assessed as cell viability at 20 uM after 24 hrs by trypan blue exclusion assay relative to control. The conditions noted are these: read-out: Activity. The class given is cell-based.
Series [12] deals with NB-4. The series is described as follows: Cytotoxicity against human NB4 cells assessed as reduction in cell viability pretreated with NAC for 4 hrs followed by compound addition measured after 24 hrs by trypan blue assay. The class given is functional, cell-based.
Series [13] can be described thus: Induction of cell differentiation in human NB4-LR2 cells assessed as CD11b+ expression at 2 uM after 3 days by flow cytometry (reference value: 13.3%). The format is functional. In general terms: A flow cytometer gives signals particle by particle.
Series [14] deals with NB-4. The experiment in a line: Potentiation of ATRA-induced cell differentiation in human NB4 cells assessed as CD11b+ expression at 3 uM after 3 days by flow cytometry (reference value: 56.1%). The class given is functional.
Series [15] relates to NB-4. The series is described as follows: Induction of ROS accumulation in human NB4 cells at 3 uM by CM-H2DCFDA probe based flow cytometry. The format is functional, cell-based.
In series [16] the test system is U-937. The series is described as follows: Induction of cell differentiation in human U937 cells assessed as CD11b+ expression at 4 uM after 24 hrs by flow cytometry (reference value: 13.46%). The format is functional.
In series [17] the test system is NB-4. The experiment in a line: Induction of cell differentiation in human NB4 cells assessed as reduction in nucleus/cytoplasm ratio at 3 uM after 6 days by Wright-Giemsa staining based assay. The class given is functional.
Series [18] deals with T1, Peroxiredoxin-1 (Homo sapiens) (UniProt Q06830).
T1 sequence (whole entry): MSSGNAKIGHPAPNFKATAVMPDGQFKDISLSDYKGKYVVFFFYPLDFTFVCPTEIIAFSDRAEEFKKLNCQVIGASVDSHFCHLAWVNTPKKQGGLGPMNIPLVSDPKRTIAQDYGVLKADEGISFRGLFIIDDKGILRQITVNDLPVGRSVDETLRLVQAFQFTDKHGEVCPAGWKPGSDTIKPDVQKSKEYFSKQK
The series is described as follows: Binding affinity to wild type recombinant human N-terminal 6His-tagged peroxiredoxin-1 expressed in Escherichia coli BL21 after 1 hr by LC-MS/MS analysis.

Series [19] deals with NB-4. The series is described as follows: Induction of cell differentiation in human NB4 cells assessed as CD11b+ expression at 3 uM pretreated with NAC for 4 hrs followed by compound addition measured after 6 days by flow cytometry (reference value: 4.58 +/- 1.53%). The format is functional.
Series [20] in a line: Induction of cell differentiation in human NB4-LR2 cells assessed as CD11b+ expression at 4 uM after 24 hrs by flow cytometry (reference value: 6.36%). The format is functional.
Series [21] can be described thus: Potentiation of ATRA-induced cell differentiation in human MR2 cells assessed as CD11b+ expression at 2 uM after 3 days by flow cytometry (reference value: 24.5%). The class given is functional.
The test system of series [22] is NB-4. The series is described as follows: Induction of cell differentiation in human NB4 cells assessed as CD11b+ expression at 3 uM after 3 days by flow cytometry (reference value: 7.5%). The format is functional.
The test system of series [23] is NB-4. The experiment in a line: Cytotoxicity against human NB4 cells assessed as reduction in cell viability at 3 uM measured up to 72 hrs by trypan blue exclusion assay. The format is functional, cell-based.
Series [24] concerns NB-4. The experiment in a line: Induction of cell differentiation in human NB4 cells assessed as CD11b positive cells at 3 uM after 6 days by flow cytometry (reference value: 7.25 +/- 1.18%). The class given is functional.
Series [25] in a line: Potentiation of ATRA-induced cell differentiation in human NB4-LR2 cells assessed as CD11b+ expression at 2 uM after 3 days by flow cytometry (reference value: 28.8%). The format is functional.
Series [26] concerns the target T2, Peroxiredoxin-2 (Homo sapiens) (UniProt P32119).
T2 sequence (whole entry): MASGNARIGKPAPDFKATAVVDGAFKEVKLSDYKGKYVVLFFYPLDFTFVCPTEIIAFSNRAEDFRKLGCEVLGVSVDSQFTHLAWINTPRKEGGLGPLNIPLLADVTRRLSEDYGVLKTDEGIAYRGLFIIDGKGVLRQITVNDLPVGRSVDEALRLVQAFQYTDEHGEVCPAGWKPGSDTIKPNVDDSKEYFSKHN
The series is described as follows: Binding affinity to wild type recombinant human N-terminal 6His-tagged peroxiredoxin-2 expressed in Escherichia coli BL21 after 1 hr by LC-MS/MS analysis.

Series [27] concerns the target T1, Peroxiredoxin-1 (Homo sapiens). The experiment in a line: Binding affinity to wild type recombinant human N-terminal 6His-tagged peroxiredoxin-1 expressed in Escherichia coli BL21 up to 200 uM by immunoblot analysis. For orientation: Immunoblotting shows a protein as a band on a membrane.
A short description of series [28]: Induction of cell differentiation in human MR2 cells assessed as CD11b+ expression at 2 uM after 3 days by flow cytometry (reference value: 4.3%). The class given is functional.
Series [29] relates to A549. The experiment in a line: Cytotoxicity against human A549 cells assessed as reduction in cell viability after 24 hrs by CellTiter-Glo assay. The format is functional, cell-based.
The subject of series [30] is NB-4. The series is described as follows: Induction of cell differentiation in human NB4 cells assessed as CD11b+ expression at 3 uM measured after 6 days by flow cytometry (reference value: 4.58 +/- 1.53%). The class given is functional.

The IC50 is the concentration at which inhibition is half-maximal.

Structures are written as SMILES. Activity calls are given as the source filed them. The calls are words filed in the database; no cut-off is given here.

As for `C=C1C(=O)[C@@H]2C3=C(CC[C@@H]4C(C)(C)CCC[C@@]34C)C[C@H]1[C@@H]2O`, the half-maximal inhibitory concentration (IC50) in [1] stood at 4.8 µM; in series [3], 5.1 µM; in series [4], 3100 nM; in series [5] it was 3100 nM; in series [6], 4.7 µM; in series [7], 8.4 µM. The compound also registered an Activity in series [2] of 17%.
For `C=C1C(=O)C2C3=C(CCC4C(C)(C)CCCC34C)CC1C2O` (racemic), the IC50 in series [8] and in series [9] was below 5 µM throughout. The Activity result in series [10] is “Non-Toxic”. Besides, the viability at 24 h, 20 µM in series [11] was 80%.
Take `C=C1C(=O)[C@H]2C3=C(CC[C@H]4C(C)(C)CCC[C@]34C)C[C@@H]1[C@H]2O`: the result in series [12] and in series [23] was inactive. Moreover, the Activity was found to be 29.4% in series [13]; 80.6% in [14]; 33.13% in [16]; 40% in [2]; 13.2% in series [19]; 21.4% in series [20]. Moreover, the Activity in [21] was 32.6%; in [22] it was 16.4%; in series [24] it was 40.7%; in [25], 49.5%; in [28], 4.9%; in [30], 44.97%. For the same compound, the result in [15], in [17], in series [18], in series [26], in series [27] and in series [29] was Active. Also, the IC50 in [1] was 1.3 µM; in series [3], 1.9 µM; in series [4], 1800 nM; in series [5] it was 1600 nM; in series [6] it was 1.8 µM; in [7], 3.7 µM.
